From patent US6256527A, “Method for determining oxygen concentration” (Nycomed Imaging AS, priority 1995, dated 2001)

What was measured:
Type in all cases: physicochemical
[1] = ESR linewidth of trityl radicals (synthesis examples); settings: singlet
[2] = Overhauser enhancement of trityl radicals (synthesis examples)
[3] = Stability measurements: half life without exclusion of air
[4] = Oximetric calibration by X-band ESR (9 GHz), oxygen broadening; settings: plasma, 37° C., X-band 9 GHz
Method: Oximetric calibrations were made for the perdeuterated trityl and the non-deuterated hydroxy trityl in water and plasma at 37° C. with ESR in the X-band at 9 GHz. The experiment was performed on a Varian X-band spectrometer with temperature controller. A thermocouple was placed near the microwave cavity for accurate determination of the temperature. The samples were placed in thin wall teflon capillaries for rapid equilibration with a flowing gas mixture. A Sensormedics Oxygen Analyzer OM-11 was used to determine the oxygen percentage in the flowing gas. The gas pressure for temperature control and oxygenation was maintained at 20 psi. The linewidth and the saturation of the electron spin resonance was measured. Fremys salt was chosen as a B1 calibration standard and a conversion factor of 38.6±0.2 mG/mW was obtained.
The results are shown in FIGS. 2 and 3 which give the linewidth as a function of oxygen concentration. The oxygen broadening of the perdeuterated trityl in plasma at 37° C. is 583 mG/mMo2 .

[5] = DNP (Overhauser) enhancement and DNP-curve relaxivity at infinite concentration and power; settings: for A. (enhancement at infinite concentration and power): water
Excerpt: The calibration data are generated by determining Overhauser enhancement values for the radical in the selected body fluid, at the selected temperature and at a range of oxygen (and preferably also radical) concentrations. The intrinsic esr relaxation times for the radical can be determined, under the same conditions, using a conventional esr spectrometer equipped with a temperature controller, with oxygen concentration being determined using the method of Ravin et al J. Appl. Physiol. 18:784-790(1964), a method known to produce accurate and reproducible results.
(§1) The following four water soluble, single ESR line trityls were investigated by NMRD, Dynamic Nuclear Polarisation (DNP) and ESR (Examples 1-4).
(§2) The relaxivity and DNP enhancement data were measured in water, plasma and blood at 23° C. and 37° C. The results are set out in Tables 1 and 2.

[6] = Relaxivity from NMRD profiles in water, plasma and blood; settings: for Relaxivity: water
Method: as §1, §2

[7] = Electron spin relaxation rates (radical concentration dependent) from CW ESR spectra and DNP data
Method: as §1
Electron spin relaxation rates were measured by analysis of CW ESR spectra and DNP data at 23° C. and 37° C. in water, isotonic saline, plasma and blood for the deuterated hydroxy trityl and in water and isotonic saline for the perdeuterated and symmetric trityl.

[8] = Oxygen sensitivity at 260 MHz by ESR and DNP in water and blood; settings: for Lorentzian line broadening by oxygen: 260 MHz
Method: The oxygen sensitivity of the deuterated hydroxy trityl was examined at 260 MHz in water and blood at 23° C. and 37° C. by ESR and DNP. The desired oxygen partial pressures were obtained in a simple shaking tonometer. The sample of 1-2 ml volume was shaken with a water saturated gas mixture flowing slowly above the sample for 5 min. The sample and gas was in a water bath maintaining the temperature. The gas mixtures were of high purity, chemically analysed. The Lorentzian line broadenings are 511 and 369 mG/mMo2 in water at 37° C. and 23° C. respectively and 329 mG/mMo2 in blood at 23° C.

[9] = water (isotonic saline), 23° C.
[10] = water (isotonic saline), 37° C.

## Bis(8-carboxy-2,2,6,6-tetra(hydroxymethyl)benzo[2-d: 4,5-d']bis(1,3)dithiol-4-yl)-mono(8-carboxy-2,2,6,6-tetramethylbenzo[2-d: 4,5-d']-bis(1,3)dioxol-4-yl)) methyl sodium salt [Example 27]
[1]; 3.4 mM in H2 O, 200 G
  ESR Line width: 120 mg
[2]; 3.4 mM in H2 O, 5 W microwave power
  Overhauser enhancement: 164
[3]; in water without exclusion of air
  Half life: 5 days

## Bis(8-ethoxycarbonyl-2,2,6,6-tetra(hydroxymethyl)benzo[1,2-d: 4,5-d']bis(1,3)dithiol-4-yl)-mono(8-ethoxycarbonyl-2,2,6,6-tetramethylbenzo[1,2-d:4,5-d']-bis(1,3)dioxol-4-yl))methyl [Example 26]
[1]; H2 O, 200 G
  ESR Line width: 433 mg

## Bis-(8-ethoxycarbonyl-2,2,6,6-tetramethylbenzo[1,2-d: 4,5-d']-bis(1,3)dithiole-4-yl)-mono-(8-ethoxycarbonyl-2,2,6,6-tetramethylbenzo[1,2-d:4,5-d']-bis(1,3)dioxol-4-yl)methyl [Example 19]
[1]; THF, 200 G
  ESR Line width: 325 mg
[2]; THF, 2.1 mM, 4 W microwave power
  Overhauser enhancement: 156
[3]; in acetonitrile without exclusion of air
  Half life: 83.33 days

## Bis-(8-potassium carboxylate-2,2,6,6-tetramethylbenzo [1,2-d:4 5-d']-bis(1,3)dithiol-4-yl)-mono-(8-potassium carboxylate-2,2,6,6-tetramethylbenzo[1,2-d:4,5-d']-bis (1,3)dioxol-4-yl)methyl [Example 20]
[1]; H2 O, 200 G
  ESR Line width: 105 mg
[2]; H2 O, 6.9 mM, 0.012 W microwave power
  Overhauser enhancement: 219

## Bis-(8-sodium carboxylate-2,2,6,6-tetrakis-(^2 H3 methyl)-benzo[1,2-d:4,5-d']-bis(1,3)-dithiole-4-yl)-mono-(8-sodium carboxylate-2,2,6,6-tetrakis-(^2 H3 -methyl)-benzo[1,2-d:4,5-d']-bis(1,3)-dioxole-4-yl) methyl [perdeuterated trityl]
[4]
  oxygen broadening: 583 mG/mMo2
[5]
  A. (enhancement at infinite concentration and power): 267
[6]; 23° C.
  Relaxivity: 0.19 mM⁻¹ s⁻¹
[6]; 37° C.
  Relaxivity: 0.14 mM⁻¹ s⁻¹
[7]; [9]
  2(3γe T1e)^-1, concentration dependent relaxation rate (peak-to-peak): 10.6 ± 0.8 mg/mM
  2(3γe T2e)^-1, concentration dependent relaxation rate (peak-to-peak): 24.3 ± 0.8 mg/mM
[7]; [10]
  2(3γe T1e)^-1, concentration dependent relaxation rate (peak-to-peak): 12.9 ± 0.3 mg/mM
  2(3γe T2e)^-1, concentration dependent relaxation rate (peak-to-peak): 28.2 ± 1.2 mg/mM

## Bis-(8-sodium carboxylate-2,2,6,6-tetrakis-(hydroxy-^2 H2 -methyl)-benzo[1,2-d:4,5-d']-bis(1,3) dithiole-4-yl)-mono-(8-sodium carboxylate-2,2,6,6-tetramethylbenzo [1,2-d:4,5-d']-bis(1,3) dioxole-4-yl)methyl [deuterated hydroxy trityl]
[5]; blood sample, 37° C.
  T1 i.e. proton relaxivity: 0.44 mM⁻¹ s⁻¹
  maximum Overhauser enhancement (i.e. at infinite VHF power and infinite radical concentration): 192
[5]; blood, 37° C.
  A. (infinite concentration and power), DNP enhancement: 192
  Relaxivity at infinite concentration and power: 0.44 mM⁻¹ s⁻¹
[5]; plasma, 37° C.
  A. (infinite concentration and power), DNP enhancement: 231
  Relaxivity at infinite concentration and power: 0.32 mM⁻¹ s⁻¹
[5]
  A. (enhancement at infinite concentration and power): 278
[6]; blood, 23° C.
  Relaxivity at 400kHz: 0.53 mM⁻¹ s⁻¹
[6]; blood, 37° C.
  Relaxivity at 400kHz: 0.44 mM⁻¹ s⁻¹
[6]; plasma, 23° C.
  Relaxivity at 400kHz: 0.48 mM⁻¹ s⁻¹
[6]; plasma, 37° C.
  Relaxivity at 400kHz: 0.45 mM⁻¹ s⁻¹
[6]; 23° C.
  Relaxivity: 0.26 mM⁻¹ s⁻¹
[6]; 37° C.
  Relaxivity: 0.20 mM⁻¹ s⁻¹
[8]; blood, 23° C.
  2(3γe T1e)^-1, relaxation rate as a function of oxygen concentration (peak-to-peak): 250 mg/mM
  2(3γe T2e)^-1, relaxation rate as a function of oxygen concentration (peak-to-peak): 329 mg/mM
  (γe T1e +L T2e)^-1, square root of slope of the inverse DNP curve: constant term: 12.9 mg/mM
  Lorentzian line broadening by oxygen: 329 mG/mMo2
[8]; blood, 37° C.
  2(3γe T1e)^-1, relaxation rate as a function of oxygen concentration (peak-to-peak): 330 mg/mM
  2(3γe T2e)^-1, relaxation rate as a function of oxygen concentration (peak-to-peak): 428 mg/mM
  (γe T1e +L T2e)^-1, square root of slope of the inverse DNP curve: constant term: 15.0 mg/mM
[8]; water, 23° C.
  2(3γe T1e)^-1, relaxation rate as a function of oxygen concentration (peak-to-peak): 301 mg/mM
  2(3γe T2e)^-1, relaxation rate as a function of oxygen concentration (peak-to-peak): 369 mg/mM
  (γe T1e +L T2e)^-1, square root of slope of the inverse DNP curve: constant term: 13.4 mg/mM
  Lorentzian line broadening by oxygen: 369 mG/mMo2
[8]; water, 37° C.
  2(3γe T1e)^-1, relaxation rate as a function of oxygen concentration (peak-to-peak): 398 mg/mM
  2(3γe T2e)^-1, relaxation rate as a function of oxygen concentration (peak-to-peak): 511 mg/mM
  (γe T1e +L T2e)^-1, square root of slope of the inverse DNP curve: constant term: 14.2 mg/mM
  Lorentzian line broadening by oxygen: 511 mG/mMo2
[7]; blood, 37° C.
  2(3γe T1e)^-1, concentration dependent relaxation rate (peak-to-peak): 3.6 ± 0.5 mg/mM
  2(3γe T2e)^-1, concentration dependent relaxation rate (peak-to-peak): 21.5 ± 0.5 mg/mM
[7]; plasma, 37° C.
  2(3γe T1e)^-1, concentration dependent relaxation rate (peak-to-peak): 2.7 ± 0.5 mg/mM
  2(3γe T2e)^-1, concentration dependent relaxation rate (peak-to-peak): 9.8 ± 0.5 mg/mM
[7]; [9]
  2(3γe T1e)^-1, concentration dependent relaxation rate (peak-to-peak): 2.6 ± 0.1 mg/mM
  2(3γe T2e)^-1, concentration dependent relaxation rate (peak-to-peak): 11.1 ± 0.5 mg/mM
[7]; [10]
  2(3γe T1e)^-1, concentration dependent relaxation rate (peak-to-peak): 2.8 ± 0.2 mg/mM
  2(3γe T2e)^-1, concentration dependent relaxation rate (peak-to-peak): 8.0 ± 0.2 mg/mM

## Tris(8-carboxy-2,2,6,6-tetrahydroxymethylbenzo[1,2-d: 4,5-d']bis(1,3)dithiole-4-yl)methyl sodium salt [Example 14]
[1]; 1.5 mM in H2 O, 100 G
  ESR Line width: 100 mg
